For 2 compounds, IC50 results are on record in patent US20160229835A1, “NOVEL PYRIDYLOXYACETYL TETRAHYDROISOQUINOLINE COMPOUNDS USEFUL AS NAMPT INHIBITORS” (ELI LILLY AND COMPANY, priority 2013, published 2016).

Experiment [1] has as its system MCF-7 (breast cancer) cells. Description: Cell Viability Assay, MCF-7. Type of experiment: cell-based. Conditions: Homo sapiens, MCF7, 72 hours. Here is the method:
The purpose of this assay is to measure the ability of a compound to reduce viability of different cancer cells dependent on the NAMPT-mediated NAD^+ formation in vitro. HCC1937 (breast cancer) cells are cultured in RPMI-1640 supplemented with 10% FBS. Calu-6 (lung cancer) cells and MCF-7 (breast cancer) cells are cultured in Minimum Essential Medium (MEM) (Gibco11095) supplemented with 1 mM sodium pyruvate (Gibco 11360), 1% Non-Essential Amino Acids Solution (100×; Gibco 11140) and 10% FBS. NCI-H1155 (lung cancer) cells are cultured in Dulbecco's Modified Eagle Medium (DMEM) (Gibco 11965) with 10% FBS. […] Cell viability is analyzed by using an assay kit (CYTOTOX-GLO™ Cytotoxicity Assay kit, Promega) according to the manufacturer's instructions as follows. […] Luminescence is measured using a Wallac Victor3 V 1420 Multilabel Counter (Perkin Elmer), referred to as dead cell luminescence. […] After the plate is incubated at room temperature for 15 minutes, luminescence is measured using the plate reader, referred to as total luminescence. Viable cell luminescence (CPS) is calculated by subtracting the dead cell luminescence from the total luminescence Inhibition of cell viability is calculated based on the equation as follows:
Inhibition (%)=(CPSnegative−CPSsample)/(CPSnegative−CPSpositive)*100 where CPS is the luminescence of viable cells.

The test system of the next experiment is A2780 cells. Description: A2780 Proliferation Assay ±NAM (Nicotinamide). It is filed as cell-based. The following applies: Homo sapiens, A2780, 72 h, 10 mM nicotinamide added to the growth medium, read-out: IC50 (proliferation of A2780 cells with 10 mM nicotinamide). Here is the method:
The purpose of this assay is to measure the ability of a compound to inhibit proliferation of A2780 cells (the NCI-DCTD Tumor repository) dependent on the NAMPT-mediated NAD^+ formation in the presence or absence of higher concentrations of NAM (10 mM) in vitro. The A2780 cell proliferation assay uses assay-ready frozen cells. To prepare assay-ready frozen A2780 cells, A2780 cells, an ovarian cancer cell line, are cultured in growth media containing RPMI 1640 (Gibco 30-2001) supplemented with 10% FBS, in T-150 flasks for 3-4 days. Cells are then treated with 4 mL of 0.25% (v/v) trypsin for 1 minute (Hyclone SH30042). Trypsin-treated cells are then diluted with 10 mL of growth media, and the cell slurry is gently mixed and then decanted to a centrifuge tube. Cells are counted and then pelleted by centrifugation at 1400 rpm for 5 minutes. After centrifugation the supernatant is removed and the cell pellets are re-suspended in GIBCO® RECOVERY™ Cell Culture Freezing Medium (Invitrogen 12648-010) at 2-5×10^6 cells/mL and then aliquoted at 1 mL volumes into cryovials. Cryovials are stored initially at −80° C. for 16 hours, and then transferred to liquid nitrogen for long term storage.
One day before the planned initiation of compound treatment portion of the assay, one vial of assay ready frozen cells is thawed, and the cells are washed with 50 mL of growth medium. Cells are counted and then diluted to 2.8×10^4 cells/mL and then plated at a rate of 2500 cells/well (90 μL per well) to BD Poly-D-Lysine, 96 well black plates (BD Biocoat 35-4640). Plates are then covered and incubated overnight under 5% CO2 at 37° C. The next day in a separate plate (V bottom Nunc 249946), a ten-point compound dilution series for each compound is prepared in growth media containing 2% DMSO (v/v, 0.2% final) with or without 100 mM NAM (10 mM final). Then 10 μL of compounds after a ten-point series dilution from either 2 or 0.1 μM (depending potency of each compound) to 50 pM or 5 pM (final) are added to the wells of the cell plates. Cell plates are covered and incubated for 72 hours under 5% CO2 at 37° C.
On the day of the viability assessment, one vial of GF-AFC substrate (CELL TITER-FLUOR™ Cell Viability Assay Kit, Promega G6081) is vortexed and the substrate is transferred to one vial of thawed CELL TITER-FLUOR™ Assay Buffer. The resulting CELL TITER-FLUOR™ reagent is then vortexed well to thoroughly dissolve the substrate. The CELL TITER-FLUOR™ reagent is then diluted (1:2) in growth medium and 50 μL of diluted CELL TITER-FLUOR™ reagent is added to each well of the cell plate. The cell plate is covered and incubated under 5% CO2 at 37° C. for 1-3 hours. Finally the cell plates are removed from the incubator and the well fluorescence is measured on an Envision® Multilabel Reader (Perkin Elmer, λeX 355/λem 495). Fluorescence from compound treated wells is compared to the no cell and no compound treatment control wells to calculate percent inhibition. The percent inhibition and ten-point compound concentration data is fit to a four-parameter logistic equation using ACTIVITYBASE 4.0 Equation 205. Each compound is tested 2-4 times in this assay.

Each structure is given as a SMILES string.

In the case of `COCCS(=O)(=O)Nc1ccc2c(c1)CCN(C(=O)COc1cccnc1)C2` [Example 2, 2-Methoxy-N-[2-[2-(3-pyridyloxy)acetyl]-3,4-dihydro-1H-isoquinolin-6-yl]ethanesulfonamide], the IC50 in experiment [1] is 352 ± 252 nM; with A2780 cells it was more than 100 nM.
Taken in the same sequence, the figures for `CC(C)(O)CS(=O)(=O)Nc1ccc2c(c1)CCN(C(=O)COc1cccnc1)C2` [Example 1, 2-Hydroxy-2-methyl-N-[2-[2-(3-pyridyloxy)acetyl]-3,4-dihydro-1H-isoquinolin-6-yl]propane-1-sulfonamide] were 389 ± 283 nM and more than 100 nM.
